# Where a chain is given by its changes, count along the chain named.
# Tests used:
# Type in all cases: binding
# [1] = target: T1, wild-type mALAS2 (murine erythroid 5-aminolevulinate synthase) (Mus musculus, UniProt P08680, K299V); experiment: intrinsic protein fluorescence quenching titration
# T1 sequence (P08680 79-587 K299V): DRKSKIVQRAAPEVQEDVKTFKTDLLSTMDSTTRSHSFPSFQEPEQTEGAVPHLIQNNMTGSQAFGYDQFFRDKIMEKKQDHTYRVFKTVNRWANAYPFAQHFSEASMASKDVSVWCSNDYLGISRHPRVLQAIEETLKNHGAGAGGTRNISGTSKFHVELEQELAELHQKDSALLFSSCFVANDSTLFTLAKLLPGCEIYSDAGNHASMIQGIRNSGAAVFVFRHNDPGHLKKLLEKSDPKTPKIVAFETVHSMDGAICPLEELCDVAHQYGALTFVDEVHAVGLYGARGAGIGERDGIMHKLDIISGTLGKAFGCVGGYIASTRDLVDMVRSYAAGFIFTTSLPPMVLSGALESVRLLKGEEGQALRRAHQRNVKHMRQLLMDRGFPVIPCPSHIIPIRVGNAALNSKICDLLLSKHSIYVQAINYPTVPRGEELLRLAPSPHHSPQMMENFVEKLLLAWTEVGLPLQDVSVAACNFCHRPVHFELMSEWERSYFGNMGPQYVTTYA
# [2] = target: T2, wild-type mALAS2 (murine erythroid 5-aminolevulinate synthase) (Mus musculus, UniProt P08680); conditions: half-maximal protection; 50 mM phosphate pH 7.5, 10% glycerol, 18 °C; no glycine
# T2 sequence (P08680 79-587): T1 sequence (P08680 79-587 K299V) with V221K
# [3] = target: T2, wild-type mALAS2 (murine erythroid 5-aminolevulinate synthase); experiment: intrinsic protein fluorescence quenching titration
SMILES,Kd [1],K′ [2],Kd [3]
CC(C)(COP(=O)(O)OP(=O)(O)OC[C@H]1O[C@@H](n2cnc3c(N)ncnc32)[C@H](O)[C@@H]1OP(=O)(O)O)[C@@H](O)C(=O)NCCC(=O)NCCSC(=O)CCC(=O)O [succinyl-CoA],223 ± 8 µM,261 ± 75 µM,297 ± 7 µM
CC(C)(COP(=O)(O)OP(=O)(O)OC[C@H]1O[C@@H](n2cnc3c(N)ncnc32)[C@H](O)[C@@H]1OP(=O)(O)O)[C@@H](O)C(=O)NCCC(=O)NCCS [CoA],431 ± 17 µM,,302 ± 12 µM
